Source: publication PMC5656322, “BAK1 is involved in AtRALF1-induced inhibition of root cell expansion” (PLoS Genetics, 2017)
Where two headings read alike, the source gives them in different places. Where no end group is shown, it is not given here. acridinium ester = acridinium ester label conjugated to the N-terminus of the peptide

Tests used:
[1] = system: Arabidopsis seedlings, primary root; assay: Root growth inhibition assay, vertical plates; format: in vivo, Arabidopsis thaliana; conditions: bak1 mutants, 0.1 μM, 8 days
Method: (§1) (A) and (B) Arabidopsis seedlings (2 days old) were treated with 10 μM AtRALF1 or water (H20) for 2 days. The values are the mean ± SD of at least 25 seedlings. Triple asterisks indicate P < 0.01 (Student’s t test); ns, not significant. (C) Four-day-old seedlings were transferred to media containing different concentrations of AtRALF1, and the primary root length was measured after 8 days of treatment. The data represent the mean value ± SD of 30 seedlings. […] Representative Arabidopsis seedlings after 8 days of treatment with AtRALF1 are shown below. Seedlings were arranged on plates after the treatment for imaging. Scale bars, 1 cm. (D) Two-day-old seedlings were treated with 10 μM AtRALF1 or water for 2 days, and root cell length was measured after 2 days of treatment. Cells from the root endodermis in the differentiation zone were measured. The values are the mean ± SD of approximately 150 cells. Triple asterisks indicate P < 0.01 (Student’s t test); ns, not significant.
Aliquots of 1 ml of medium containing seeds were distributed into 24-well plates. The peptides (10 μM) were added after 2 days, and the root length was measured 2 days after treatment. To maximize root growth, the seeds were germinated in vertical plates. […] The root length was measured 8 days after treatment unless stated otherwise. Control plants were grown under identical conditions in a peptide-free medium. Quantitative data were obtained as previously described. […] The data from one representative experiment are shown. For cell length measurements, AtRALF1 peptide (10 μM) was added after 2 days of germination, and the cell length was measured after 2 days of treatment. The cell wall was stained with a 1 mg ml^-1 propidium iodide solution (Sigma) in the dark for 15 min and washed twice with water. Cells of the endodermis of the root differentiation zone were imaged and measured using confocal microscopy (Olympus FV1000). Approximately 30 plants from each genetic background and at least 5 cells per root were measured. The wavelengths for excitation and emission were 555 and 655 nm, respectively. Image processing was completed using the Olympus FluoView software.
Supplementary file pgen.1007053.s004.pdf: S4 Fig Analyses of root growth of Arabidopsis seedlings treated with AtRALF1 peptide for 8 days and evaluated daily. Four-day-old seedlings were transferred to media containing different concentrations of AtRALF1, and the primary root length was measured daily during the 8 days of treatment. Genotypes Wt, bak1-1, bak1-3 and bak1-4 are indicated on top of each series of graphics. The seedlings were treated with 0, 0.5, 1, 5 and 10 μM AtRALF1. The data represent the mean values ± SD of 30 seedlings. Double and triple asterisks indicate P < 0.05 and P <0.01, respectively (Student’s t test); ns, not significant. (PDF) Click here for additional data file.
Four-day-old seedlings were transferred to medium containing 10 μM AtRALF1, and the primary root length was measured after 8 days of treatment. The data represent the mean value ± SD of 20 seedlings. Triple asterisks indicate P < 0.01 (Student’s t test); ns, not significant. Representative Arabidopsis seedlings after 8 days of treatment with AtRALF1 are shown. The seedlings were arranged on plates after the treatment for imaging. Scale bars, 1 cm. (PDF) Click here for additional data file.
Four-day-old seedlings were transferred to medium containing 0.1 μM BAP, and the primary root length was measured after 8 days of treatment. The data represent the mean value ± SD of 10 seedlings.

cell suspensions = conditions: ref [5]; cited from earlier work
[2] = system: Arabidopsis seedlings, primary root; assay: Root growth inhibition assay, liquid medium, 24-well plates; format: in vivo, Arabidopsis thaliana; conditions: 10 μM, 2 days; bak1-1, bak1-3 and bak1-4 mutants
Method: as §1
Aliquots of 1 ml of medium containing seeds were distributed into 24-well plates. The peptides (10 μM) were added after 2 days, and the root length was measured 2 days after treatment. To maximize root growth, the seeds were germinated in vertical plates. […] The root length was measured 8 days after treatment unless stated otherwise. Control plants were grown under identical conditions in a peptide-free medium. Quantitative data were obtained as previously described. The experiments were repeated at least 3 times using independent biological replicates with similar results. The data from one representative experiment are shown. For cell length measurements, AtRALF1 peptide (10 μM) was added after 2 days of germination, and the cell length was measured after 2 days of treatment. The cell wall was stained with a 1 mg ml^-1 propidium iodide solution (Sigma) in the dark for 15 min and washed twice with water. Cells of the endodermis of the root differentiation zone were imaged and measured using confocal microscopy (Olympus FV1000). Approximately 30 plants from each genetic background and at least 5 cells per root were measured. The wavelengths for excitation and emission were 555 and 655 nm, respectively. Image processing was completed using the Olympus FluoView software.
Arabidopsis seedlings (2-days-old) were treated with 10 μM AtRALF1 or water (H20) for 2 days. The values are the mean ± SD of at least 25 seedlings. Triple asterisks indicate P < 0.01 (Student’s t test); ns, not significant. (PDF) Click here for additional data file.
Supplementary file pgen.1007053.s002.pdf: S2 Fig Loss-of-function bak1 mutants are sensitive to the inhibitory activity of AtRALF23/34 on root growth. Arabidopsis seedlings (2-day-old) were treated with 10 μM RALF1(9–49), RALF1(I6A), AtRALF1, AtRALF23 and AtRALF34 or water (H20) for 2 days. The values are the mean ± SD of at least 20 seedlings. […] (PDF) Click here for additional data file.

[3] = system: Arabidopsis seedlings, primary root; conditions: wild-type Arabidopsis; ref [5]; cited from earlier work
Method: To better understand the role of AtRALF1 and BRs in regulating cell expansion, we exposed different mutants and transgenic Arabidopsis plants with altered BR signaling pathways to the peptide hormone AtRALF1 at concentrations that inhibit root growth. Loss-of-function mutants (bri1-301, bsk3-2 and bak1-4), gain-of-function mutants (sud1, bes1-D and bzr1-D) and two overexpressor lines (BRI OX and DWF4 OX) were used in the root growth assays in the presence or absence of 10 μM AtRALF1 (Fig 1A).

[4] = system: microsomal fractions from the roots of Arabidopsis; assay: Binding assay with acridinium-labeled AtRALF1, microsomal fractions; parameters: species or system Arabidopsis thaliana
Method: (§2) (A) Whole seedlings (5 days old) were treated for 15 min with acriAtRALF1 (acriR1), acriR1 and an excess of unlabeled AtRALF34 (R34), RALF1(9–49) [(R-9-49)], or AtRALF1 (R1), as indicated. The values are the mean ± SD of two measurements (5 seedlings each). (B) Microsomal fractions from wild-type and bak1 mutants were incubated for 15 min with acriAtRALF1 (acriR1), with acriR1 and an excess of unlabeled RALF1(9–49) [(R-9-49)], or with AtRALF1 (R1), as indicated. The values are the mean ± SD of two measurements. The proportions of labeled: unlabeled proteins are shown in parentheses. Single and triple asterisks indicate P < 0.1 and P < 0.01 (Student’s t test).
(§3) Arabidopsis seedlings were grown for 5 days on vertical plates. Roots were homogenized in extraction buffer [300 mM sucrose, 100 mM Tris-HCl pH 7.5, 25 mM EDTA, 25 mM NaF, 1 mM Na2MoO4, 1 mM PMSF and protease inhibitor cocktail (Roche), adjusted to pH 6.2], and the homogenate was spun at 2,000 x g for 10 min at 4 °C. The supernatant was recovered and centrifuged at 100,000 x g for 50 min at 4 °C to precipitate the microsomal pellet. The pellet was resuspended in the extraction buffer plus 0.5% Triton-X. Seedlings or microsomal fractions were placed in 200 μl of medium and incubated with 7 nM acridinium-labeled peptide (acriAtRALF1 or acriAtRALF34) and different concentrations of AtRALF1, AtRALF34 or RALF1(9–49) for 15–20 min at 4 °C on a shaker. After incubation, the seedlings or microsomal fractions were washed three times with the same medium. Unless indicated otherwise, five entire seedlings and approximately 10 ng of microsomal fractions were used per treatment. The resulting luminescence emissions from the acridinium were measured using a microplate reader (Biotec ELx 800) at 2 s after injecting 50 μl of a solution containing 20 mM H2O2 in 0.1 M NaOH. These experiments were repeated at least three times using independent biological replicates. Duplicates were used for each concentration or treatment. The data shown are from one representative experiment.

[5] = system: intact Arabidopsis seedlings; assay: Binding assay with acridinium-labeled AtRALF1, intact seedlings; parameters: species or system Arabidopsis thaliana; conditions: for reduction of total acriAtRALF1 binding vs wild-type: 7 nM, 4 °C
Method: as §2, §3
Supplementary file pgen.1007053.s017.pdf: S17 Fig Analyses of acridinium-labeled AtRALF1 (acriAtRALF1) and binding of acriAtRALF1 in bak1-4 and fer4 mutants. (A) The Ca^2+ mobilization assay comparing the acriAtRALF1 activity with the AtRALF1 peptide. A total of 20 time-points per treatment were measured over 160 sec and summed. The results are the means ± SD of two measurements. (B) acriAtRALF1 binding in whole seedlings and only in roots of Arabidopsis. The roots were excised just before measurements. Ctr, seedlings treated with unlabeled AtRALF1. (C) Whole seedlings (5 days old) were treated for 20 min with acriAtRALF1 (acriR1), acriR1 and an excess of unlabeled AtRALF1 (R1), as indicated. The values are the mean ± SD of three measurements (5 seedlings each). The proportions of labeled: unlabeled proteins are shown in parentheses. Triple asterisks indicates P < 0.001 (Student’s t test). (PDF) Click here for additional data file.
Supplementary file pgen.1007053.s018.pdf: S18 Fig Binding of acridinium-labeled AtRALF1 and AtRALF34 to intact Arabidopsis seedlings. (A) bak7 seedlings (5 days old) were treated for 15 min with acriAtRALF1 (acriR1), acriR1 and an excess of unlabeled AtRALF1 (R1), as indicated. (B) bak1 seedlings (5 days old) were treated for 15 min with acriAtRALF34 (acriR34), acriR34 and an excess of unlabeled AtRALF34 (R34) or AtRALF1 (R1), as indicated. The proportions of labeled: unlabeled proteins are shown in parentheses. The values are the mean ± SD of two measurements (5 seedlings each). (PDF) Click here for additional data file.

[6] = system: cytosolic Ca^2+ in Arabidopsis seedlings; assay: Ca^2+ mobilization assay (apoaequorin luminescence); format: in vivo, Arabidopsis thaliana; conditions: acriAtRALF1 vs unlabeled AtRALF1, apoaequorin seedlings (S17A Fig)
Method: The cytoplasmic Ca^2+ assay was performed in Arabidopsis seedlings as described previously. Changes in Ca^2+ levels were measured using an Arabidopsis line homozygous for the single insertion of a transgene encoding a cytoplasmically expressed apoaequorin protein driven by the constitutive promoter 35S [53], here denoted Wt-aeq. Wt-aeq plants were crossed with bak1-3 mutants, and T3 generation plants overexpressing apoaequorin and containing a T-DNA insertion in the BAK1 gene, named bak1-3-aeq, were selected and evaluated using semi-quantitative RT-PCR with specific primers (S1 Table). Arabidopsis seedlings were grown in plates for 4 days. A single seedling was transferred into each well of a 96-well white microplate (Thermo Labsystems) containing 200 μl of medium supplemented with […] coelenterazine cp (Biotium) and incubated in the dark at 24 °C for 16 h. Each well containing a single seedling received recombinant AtRALF1 or acridinium-labeled AtRALF1 at a final concentration of 5, 10 or 100 nM as indicated. The resulting luminescence emission was monitored using a microplate reader (Biotec ELx 800) and 20 time-points for approximately 160 s. The experiments were repeated at least three times using independent biological replicates. The data shown are from one representative experiment.

Molecule: c1ccc(CNc2ncnc3nc[nH]c23)cc1 [6-benzylaminopurine (BAP), 6-benzylaminopurine, reference compound]
- root growth inhibition [1]: capable of inhibiting the root growth of bak1 mutants

Molecule: AtRALF23: Arabidopsis RALF isoform (ATRRYISYGALRRNTIPCSRRGASYYNCRRGAQANPYSRGCSAITRCRRS; ends and bridges not checked; cysteine pairing not given here; UniProt Q9LUS7 89-138, looked up) [reference compound]
- alkalinization of the extracellular medium (cell suspensions): alkalinizes the extracellular medium of cell suspensions
- primary root growth inhibition [2]: inhibited the primary root growth
- primary root growth inhibition [3]: inhibits the primary root growth of wild-type Arabidopsis plants

Molecule: acriAtRALF1: acridinium-labeled AtRALF1; acridinium ester conjugated to the N-terminal of the peptide ({acridinium ester}-ATTKYISYQSLKRNSVPCSRRGASYYNCQNGAQANPYSRGCSKIARCRS; ends and bridges not checked)
- nature of acriAtRALF1 binding ([4]; microsomal fractions): specific and saturable
- reduction of total acriAtRALF1 binding vs wild-type ([4]; microsomal fractions of bak1 mutants, 7 nM, 4 °C): approximately 15%
- reduction of total acriAtRALF1 binding vs wild-type ([5]; bak1-1 seedlings, 15 min): 30%
- reduction of total acriAtRALF1 binding vs wild-type ([5]; bak1-3 seedlings, 15 min): 29%
- reduction of total acriAtRALF1 binding vs wild-type ([5]; bak1-4 seedlings, 15 min): 31%
- reduction of total acriAtRALF1 binding, wild-type vs bak7 ([5]; bak7 mutants, 15 min): no differences in the reduction of total binding between wild-type and bak7 mutants were observed
- reduction of total acriAtRALF1 binding ([5]; fer4 mutants, 20 min (S17C Fig)): approximately 48%
- source of acriAtRALF1 chemiluminescent signal ([5]; whole seedlings vs only roots (S17B Fig)): the roots were the only source of the chemiluminescent signal
- increase in cytoplasmic Ca^2+ [6]: induced an increase in cytoplasmic Ca^2+
